Consider two molecules from patent US6673354B2, “Compositions and methods for treating papillomavirus-infected cells” (priority 1998, dated 2004).

In one assay the target is T1, HPV11 E1/E2 interaction (Human papillomavirus 11, UniProt P04014).
T1 construct: made in house; host or cells: Hi-Five insect cells infected with recombinant baculoviruses (gift from Louise Chow); nuclear extracts
Nature of the assay: In vitro HPV E1-E2 binding assay, HPV11 E1 and HPV11 E2. On the procedure: (§1) In vitro HPV E1-E2 binding assay. 300-500 ng protein from HPV16 or HPV11 EE-E1 expressing recombinant baculovirus infected cell nuclear extracts and 80-120 ng from HPV E2 baculovirus infected cell nuclear extracts were incubated in 500 μl NET-gel buffer (50 mM Tris-HCl pH7.5, 150 mM NaCl, 0.1% NP-40, 1 mM EDTA, 0.25% gelatin) at 4° C. for one hour. 1-2 μg anti-EE monoclonal antibody was added and incubated with shaking at 4° C. for one hour. Immune complexes were precipitated with protein-G agarose beads and washed twice for 30 minutes with ice cold NET-gel buffer. Precipitated proteins were detected by Western blot using appropriate primary antibodies and anti-rabbit IgG HRP or anti-mouse IgG HRP (Amersham). Membranes were blocked for one hour in TNET (10 mM Tris 7.5, 2.5 mM EDTA, 50 mM NaCl, 0.1% Tween-20) containing 4% (w/v) dry milk. Washes and antibody reactions were carried out in TNET, and proteins were visualized by chemiluminescence (Reneaissance ECL, NEN) and autoradiography. Bands were quantitated using the NIH image program.
(§2) Very little is known about the physical properties of domains within the papillomavirus E1 and E2 proteins that are involved in intermolecular recognition and association. […] The effect of the E2N-WP15 peptide on these interactions was also assessed. […]

The target in assay [1] is T2, interaction between HPV11 E1 and HPV16 E2 (Human papillomavirus 11, UniProt P04014).
T2 construct: made in house; host or cells: Hi-Five insect cells infected with recombinant baculovirus (HPV-11 EE-E1 virus a gift from Louise Chow); nuclear extracts
Briefly: In vitro HPV E1-E2 binding assay, HPV11 E1 and HPV16 E2. The protocol: as §1, §2

The test system of assay [2] is in vitro HPV16 DNA replication. Briefly: In vitro replication of HPV16 DNA (293 cell extract, EE-E1, HPV16 E2). The class given is biochemical. The conditions noted are these: 40 ng EE-E1 and 6 ng HPV16 E2, FIG. 7. On the procedure:
(§3) In vitro replication reactions. In vitro replication reactions were essentially as described by Kuo et al. (18) in 25 μl reactions at 37° C. for indicated times. Standard reactions were for 2 hours, and were terminated by addition of 200 μl stop solution (20 mM Tris-HCl pH 7.5, 10 mM EDTA, 0.1% SDS, and 20 μg/ml RNase A). After incubation at 37° C. for 15 minutes, proteinase K was added (200 μg/ml) and incubation was continued 30 minutes. Samples were extracted with 250 μl phenol/chloroform/isoamyl alcohol (25:24:1), ethanol precipitated, washed with 70% ethanol, dried, resuspended in 20-30μl TE, and analyzed on a 0.8% agarose gel (TAE). The agarose gel was dried onto Hybond N+ membrane (Amersham), and replicated DNA was visualized by autoradiography. Bands were quantitated by Phosphorimager analysis. Replication templates were pKS7838-7905 (nt7838-7905/1-130) containing the HPV16 replication origin, and pUC7874-99 containing the HPV11 origin of replication (nt7874-7933/1-99). pUC7874-99 was a generously provided by Dr. Louise Chow.
We sought to establish a system for the study of HPV16 DNA replication in vitro, and to determine whether specific interaction between HPV16 E1 and E2 was required for HPV16 DNA replication in this system. […] As has been documented for other papillomavirus E1 proteins, some replication was observed using relatively large amounts of E1 in the absence of E2 (lanes 2 through 7) (6, 16, 22, 33, 40, 48). […] Replication in this assay is ori-dependent, since the small amount of replication of the pKS plasmid lacking the HPV16 origin detected at high concentrations of EE-E1 (FIG. 3B, lanes 1-6) was not stimulated by E2 (FIG. 1B, lanes 7-12).
Since the E2N-WP23 and E2N-WP 15 peptides could inhibit interaction between […] E1 and E2, their ability to inhibit in vitro HPV16 DNA replication was also tested (FIGS. 7A and 7B).

Assay [3] concerns HPV16 E2/HPV11 E1 dependent replication of the HPV11 origin. Briefly: In vitro replication of the HPV11 origin with HPV11 E1 and HPV16 E2. The class given is biochemical. The protocol: as §3
The ability of the E2N-WP15 peptide to inhibit HPV11 E1 mediated replication in vitro was also tested. As shown in FIG. 7B (lanes 1-9), HPV11 E1 could cooperate with HPV16 E2 in supporting dose responsive in vitro replication of the HPV11 ori. […]

Assay [4] has as its target T3, interaction between HPV16 E1 and E2 (Human papillomavirus type 16, UniProt P03114).
T3 construct: made in house; host or cells: Hi-Five insect cells infected with recombinant baculovirus (pVL1392); nuclear extracts
Nature of the assay: In vitro HPV E1-E2 binding assay (co-immunoprecipitation / Western blot), HPV16 E1 and HPV16 E2. On the procedure:
as §1
Therefore, we reasoned that a peptide encompassing this domain of HPV16 E2 might inhibit interaction between HPV16 E1 and E2, thereby inhibiting HPV16 DNA replication (FIG. 5). In order to test this possibility, HPV16 E2 and epitope tagged full length HPV16 E1 (EE16-E1) proteins were expressed separately using baculovirus vectors. EE-E1 and associated E2 proteins were immunoprecipitated using an anti-EE epitope monoclonal antibody. Precipitated E2 was detected by Western blot using polyclonal antiserum raised to the DNA binding domain of HPV16 E2 (35). As shown in lane 2 of FIG. 6A, E2 co-immunoprecipitated with EE16-E1, but was not precipitated by the EE epitope antibody in the absence of EE16-E1 (lane 1). Peptides encompassing HPV16 E2 amino acids 29-51 (E2N-WP23) or residues 33-47 (E2N-WP15) of HPV16 E2 were then tested for inhibition of E1-E2 interaction. These peptide sequences were derived from the sequence of HPV16 E2, and were based on an alignment of amino terminal residues that are conserved among the papillomavirus E2 proteins (FIG. 5). […] Both the HPV16 E2 protein itself and the E2 derived peptides act specifically in these assays, since the E39A replication defective HPV16 E2 mutant bound only slightly to EE16-E1 (lanes 14). […] These peptides are named E2N-MP23 and E2N-MP15, respectively (see FIG. 5). […] We have previously shown that a domain spanning amino acids 421-647 of the HPV16 E1 carboxy terminus is necessary and sufficient for E2 interaction (45).
In general terms: Immunoblotting shows a protein as a band on a membrane.

Assay [5] concerns the target T4, epitope tagged full length HPV16 E1 (EE16-E1) (human papillomavirus type 16, UniProt P03114 1-649).
T4 construct: range 1-649; also called EE-E1; HPV16 EE-E1
T4 sequence: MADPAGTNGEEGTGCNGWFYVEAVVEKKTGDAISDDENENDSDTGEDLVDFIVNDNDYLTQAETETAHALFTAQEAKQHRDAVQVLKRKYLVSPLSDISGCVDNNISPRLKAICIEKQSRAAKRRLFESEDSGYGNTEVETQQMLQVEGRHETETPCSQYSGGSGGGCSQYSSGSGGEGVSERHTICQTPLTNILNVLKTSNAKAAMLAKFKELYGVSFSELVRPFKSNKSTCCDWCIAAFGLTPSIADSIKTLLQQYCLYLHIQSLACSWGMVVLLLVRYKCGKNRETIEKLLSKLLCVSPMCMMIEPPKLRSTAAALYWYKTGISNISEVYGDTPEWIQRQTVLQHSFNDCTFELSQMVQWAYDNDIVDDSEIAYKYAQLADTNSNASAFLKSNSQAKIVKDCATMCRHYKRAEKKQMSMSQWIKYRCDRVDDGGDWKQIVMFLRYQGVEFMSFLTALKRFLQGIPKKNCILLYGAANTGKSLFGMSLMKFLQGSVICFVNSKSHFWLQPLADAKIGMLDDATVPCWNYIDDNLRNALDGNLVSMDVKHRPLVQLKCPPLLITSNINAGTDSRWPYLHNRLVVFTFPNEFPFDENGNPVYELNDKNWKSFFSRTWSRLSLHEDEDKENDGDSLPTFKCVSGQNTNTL
Nature of the assay: co-immunoprecipitation with anti-EE antibody (data not shown); pair read as HPV16 E1 with HPV11 E2.

T1 sequence (P04014 whole entry): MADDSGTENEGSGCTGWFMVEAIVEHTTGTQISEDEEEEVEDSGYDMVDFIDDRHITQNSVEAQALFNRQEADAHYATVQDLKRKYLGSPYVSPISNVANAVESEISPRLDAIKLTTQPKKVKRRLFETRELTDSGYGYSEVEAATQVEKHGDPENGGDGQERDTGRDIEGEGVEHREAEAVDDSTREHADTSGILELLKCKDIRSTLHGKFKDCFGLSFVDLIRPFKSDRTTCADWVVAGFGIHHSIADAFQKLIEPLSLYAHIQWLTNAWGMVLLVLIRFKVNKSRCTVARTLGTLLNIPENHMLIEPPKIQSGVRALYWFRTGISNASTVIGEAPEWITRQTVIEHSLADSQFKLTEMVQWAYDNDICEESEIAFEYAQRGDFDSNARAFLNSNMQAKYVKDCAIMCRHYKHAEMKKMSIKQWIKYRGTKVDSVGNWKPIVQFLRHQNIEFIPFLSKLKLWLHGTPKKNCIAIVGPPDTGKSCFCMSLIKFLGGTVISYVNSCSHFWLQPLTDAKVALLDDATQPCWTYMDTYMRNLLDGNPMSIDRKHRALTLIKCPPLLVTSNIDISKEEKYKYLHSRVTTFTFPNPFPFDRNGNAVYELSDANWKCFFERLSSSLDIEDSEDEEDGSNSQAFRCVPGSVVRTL
T2 sequence (P04014 whole entry): as above

In the case of WKHMRLECAIYYKAR [E2N-WP15], at HPV11 E1/E2 interaction, the “inhibition of HPV11 E1/E2 interaction” value was “effectively inhibited”. In addition, in assay [1], the “inhibition of interaction between HPV11 E1 and HPV16 E2” value is given as “effectively inhibited”. In assay [2], the “inhibition of in vitro HPV16 DNA replication” value is recorded as “could effectively inhibit in vitro replication”. In addition, the “inhibition of HPV16 E2/HPV11 E1 dependent replication of the HPV11 origin” value in assay [3] is reported as “approximately the same effectiveness as its inhibition of HPV16 E1/E2 mediated in vitro replication”. In assay [4] (50 μM final concentration, added 5 minutes after start of binding reaction, terminated at 60 minutes), the “effect on E1-E2 interaction of peptide added at 5 minutes” value is listed as “significant inhibition of subsequent E1-E2 interaction”. Besides, in assay [4] (50 μM final concentration, added at or after 10 minutes), the “effect on E1-E2 interaction of peptide added at or after 10 minutes” value is recorded as “only a minimal effect on the stability of this E1-E2 interaction”. Moreover, in assay [4] (increasing peptide concentrations, FIG. 6A), the “inhibition of HPV16 E1-E2 interaction” value is given as “comparable inhibition of E1-E2 interaction”. In addition, the “mode of inhibition of E1-E2 interaction” value in assay [4] (inhibition plotted as a function of substrate concentration (data not shown)) was “competitive inhibition”.

B1: HPV11 E2 (other)
chain: MEAIAKRLDACQDQLLELYEENSIDIHKHIMHWKCIRLESVLLHKAKQMGLSHIGLQVVPPLTVSETKGHNAIEMQMHLESLAKTQYGVEPWTLQDTSYEMWLTPPKRCFKKQGNTVEVKFDGCEDNVMEYVVWTHIYLQDNDSWVKVTSSVDAKGIYYTCGQFKTYYVNFNKEAQKYGSTNHWEVCYGSTVICSPASVSSTVREVSIAEPTTYTPAQTTAPTVSACTTEDGVSAPPRKRARGPSTNNTLCVANIRSVDSTINNIVTDNYNKHQRRNNCHSAATPIVQLQGDSNCLKCFRYRLNDKYKHLFELASSTWHWASPEAPHKNAIVTLTYSSEEQRQQFLNSVKIPPTIRHKVGFMSLHLL
Turning to B1, the binding result in assay [5] is “no binding”.
